Experimental findings from article PMC3920740 (Biopolymers, 2013) are described below.

Where a SMILES comes first, the peptide text is derived from it. The star is where a group is joined. Acetyl(1-pyrenyl) = O=C(Cc1ccc2ccc3cccc4ccc1c2c34)*; Acetyl(2-naphthyl) = O=C(Cc1ccc2ccccc2c1)*

Data set [1] deals with MMP-9. The data set is described as follows: Digestion of peptides by MMP-9. Format: in vitro ADME. Particulars: MMP-9 (10 U) in Tris-HCl buffer, pH 7.5.
The test system of data set [2] is MMP-9. In words: Tris-HCl buffer. Particulars: 37 °C, up to 72 h.

Take `CC(C)C[C@H](NC(=O)CNC(=O)[C@H](CC(C)C)NC(=O)[C@@H]1CCCN1C(=O)CNC(=O)[C@H](Cc1ccccc1)NC(=O)[C@H](Cc1ccccc1)NC(=O)Cc1ccc2ccccc2c1)C(=O)N[C@@H](CCCNC(=N)N)C(=O)N[C@@H](CO)C(=O)N[C@@H](CCCCN)C(=O)O` [3a] ({Acetyl(2-naphthyl)}-FFGPLGLRSK-OH; N-terminus assumed): the fraction remaining (in general, the share of the starting amount still present when the sample was taken) at 72 h, 500 μM in the data set with MMP-9 [1] came out at 41%.
The compound `CC(C)C[C@H](NC(=O)[C@H](CO)NC(=O)[C@H](CC(C)C)NC(=O)[C@@H]1CCCN1C(=O)Cc1ccc2ccc3cccc4ccc1c2c34)C(=O)N[C@@H](CCCNC(=N)N)C(=O)N[C@@H](CO)C(=O)N[C@@H](CCCCN)C(=O)O` [4c] ({Acetyl(1-pyrenyl)}-PLSLRSK-OH; N-terminus assumed) yielded an amount remaining at 72 h, 500 μM in the data set with MMP-9 [1] of 18%.
With PLGLRSK, the cleaved bond entry in the data set with MMP-9 [2] is on record as “L-R, major”.
Same read-out and setting: as for PLSLRSK, the entry is “L-R, major”.
